How the values were obtained:
hM3 receptor = molecular target: T1, hM3 receptor (Homo sapiens, UniProt P20309); test: Blockade of agonist-mediated calcium release via FLIPR assay; format: cell-based; settings: CHO cells stably expressing the hM3 receptor, oxotremorine at EC90
T1 construct: expressed in transfected cells; host or cells: CHO cells
From the text: C. Blockade of Agonist-Mediated Calcium Release via FLIPR Assays
Muscarinic receptor subtypes (M1, M3 and M5 receptors), which couple to Gq proteins, activate the phospholipase C (PLC) pathway upon agonist binding to the receptor. As a result, activated PLC hydrolyzes phosphatyl inositol diphosphate (PIP2) to diacylglycerol (DAG) and phosphatidyl-1,4,5-triphosphate (IP3), which in turn generates calcium release from intracellular stores, i.e., endoplasmic and sarcoplasmic reticulum. […] This fluorescence event is measured in real time by the FLIPR, which detects the change in fluorescence from a monolayer of cells cloned with human M1 and M3, and chimpanzee M5 receptors. Antagonist potency can be determined by the ability of antagonists to inhibit agonist-mediated increases in intracellular calcium. […]
To determine antagonist potency, the dose-dependent stimulation of intracellular Ca^2+ release for oxotremorine is first determined so that antagonist potency can later be measured against oxotremorine stimulation at an EC90 concentration. […]
The parameters used for the FLIPR are: exposure length of 0.4 seconds, laser strength of 0.5 watts, excitation wavelength of 488 nm, and emission wavelength of 550 nm. Baseline is determined by measuring the change in fluorescence for 10 seconds prior to addition of agonist. […]

[1] = system: ACh-induced bronchoconstriction; test: Duration of bronchoprotection in guinea pig model of acetylcholine-induced bronchoconstriction; format: in vivo; settings: inhalation, 1.5 hours post-dose
Method: Determination of Duration of Bronchoprotection in Guinea Pig Model of Acetylcholine-Induced Bronchoconstriction
Groups of six male guinea pigs (Duncan-Hartley (HsdPoc:DH) Harlan, Madison, WI) weighing between 250 and 350 g were individually identified by cage cards. Throughout the study animals were allowed access to food and water ad libitum.
Test compounds were administered via inhalation over 10 minutes in a whole-body exposure dosing chamber (R&S Molds, San Carlos, CA). The dosing chambers were arranged so that an aerosol was simultaneously delivered to 6 individual chambers from a central manifold. Guinea pigs were exposed to an aerosol of a test compound or vehicle (WFI). […] This was measured gravimetrically by comparing pre- and post-nebulization weights of the filled nebulizer.
The bronchoprotective effects of test compounds administered via inhalation were evaluated using whole body plethysmography at 1.5, 24, 48 and 72 hours post-dose.
Forty-five minutes prior to the start of the pulmonary evaluation, each guinea pig was anesthetized with an intramuscular injection of ketamine (43.75 mg/kg), xylazine (3.50 mg/kg) and acepromazine (1.05 mg/kg). […] The depth of anesthesia was monitored and adjusted if the animal responded to pinching of its paw or if the respiration rate was greater than 100 breaths/minute. […]

T1 sequence (P20309 whole entry): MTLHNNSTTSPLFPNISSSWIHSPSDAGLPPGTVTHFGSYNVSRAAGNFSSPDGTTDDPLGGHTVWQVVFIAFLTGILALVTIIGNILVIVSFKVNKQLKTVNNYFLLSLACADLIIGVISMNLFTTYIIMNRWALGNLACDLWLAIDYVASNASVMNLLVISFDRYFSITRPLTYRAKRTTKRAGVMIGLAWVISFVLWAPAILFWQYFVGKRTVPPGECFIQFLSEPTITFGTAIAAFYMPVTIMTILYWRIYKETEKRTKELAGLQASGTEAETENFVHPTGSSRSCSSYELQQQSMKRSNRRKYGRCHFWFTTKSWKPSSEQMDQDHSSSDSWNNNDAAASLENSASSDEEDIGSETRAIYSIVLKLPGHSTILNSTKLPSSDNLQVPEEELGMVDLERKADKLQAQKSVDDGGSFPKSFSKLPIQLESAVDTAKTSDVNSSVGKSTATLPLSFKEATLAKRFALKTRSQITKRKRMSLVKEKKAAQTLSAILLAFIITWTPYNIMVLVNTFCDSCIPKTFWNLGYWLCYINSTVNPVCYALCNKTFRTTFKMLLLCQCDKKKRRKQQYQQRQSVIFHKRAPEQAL

- Ki (hM3 receptor): < 5 nM
SMILES: CN(CCN1CCC(OC(=O)Nc2ccccc2-c2ccccc2)CC1)C(=O)c1ccc(CN2CCC(C(N)=O)CC2)cc1 [Example 1, Biphenyl-2-ylcarbamic Acid 1-(2-{[4-(4-Carbamoylpiperidin-1-ylmethyl)benzoyl]methylamino}ethyl)piperidin-4-yl Ester]
- PD2(50) for ACh-induced bronchoconstriction [1]: less than 200 μg/mL

Source: US12258316B2, “Biphenyl compounds useful as muscarinic receptor antagonists” (THERAVANCE BIOPHARMA R&D IP, LLC, priority 2004, dated 2025)
